Results as given in patent US7767463B2, “Method for screening mobile phases in chromatography systems” (Cohesive Technologies, Inc., priority 2007, dated 2010).

Format: physicochemical
From the text: The method provided herein provides for a technique to more reliably screen and select an appropriate eluent protocol. In an exemplary embodiment, reference is therefore made to FIG. 2. A given solvent or solvent combination may be prepared 210. Then a desired sample, alone or premixed with the same or another solvent, may be combined with the given solvent forming a mobile phase 220. The mobile phase may then be passed through a membrane 230. As discussed more fully below, the membrane may be representative of a particular chromatographic column with respect to variables such as pore diameter. The pressure of the mobile phase as it passes through the membrane may then be measured by pressure detectors on one or both sides of the membrane 240. The pressure differential between mobile phases containing the desired sample and various solvents may be assessed at 250. […]
The pressure developed prior to the membrane as the mobile phase passes through the membrane may be, as discussed above, indicative of the dissolution between the sample and the solvent. […] In addition, by comparing the pressure developed prior to the membrane of a given mobile phase P1 with a sample to a similar sample in other and different solvents, relative solubility may again be determined. […]

c1ccc2ccccc2c1 [naphthalene]
pressure differential: 25 bar
